# “Also recorded” adds a separate entry of the source.
# Assays:
# [1] = test system: primary and metastatic breast cancer; settings: mice; cited from earlier work
# [2] = biological target: CXCR7 (Homo sapiens, UniProt P25106); settings: cited from earlier work
# [3] = test system: MDA-MB-231; test: Tumor volume of subcutaneous MDA-MB-231 (with or without MSCs) in nude BALB/c mice; assay type: in vivo
# Experimental: To validate our in vitro studies, female nude BALB/c mice were injected subreast cancerutaneously with 10^6 matrigel-resuspended MDA-MB-231 alone or in combination with 10^6 MSCs, as per the experimental design described in FIG. 7A. Mice were divided into the following experimental groups (n=5 per group): (A) breast cancer cells injected alone; (B) breast cancer cells injected in combination with MSCs; (C) group B plus AMD3100 treatment; (D) group C plus IL-1ra co-treatment. All groups were treated with carboplatin at days 8 and 10 following initial injection of cells, and the animals euthanized at the experimental endpoint of day 12 (D12).
# Female nude BALB/c mice (4 weeks) were obtained from Harlan Laboratories (Indianapolis, Ind.) and housed in a laminar flow hood at an AALAC-accredited facility. The use of mice was approved by the Institutional Animal Care and Use Committee, New Jersey Medical School (Newark, N.J.). MDA-MB-231 (10^6), alone or in combination with MSCs (10^6), in 0.1 mL and equal volume of BD Matrigel (BD Biosciences, Bedford, Mass.) were injected by subreast cancerutaneous route in the nude mice (Day 0, D0). After 4 days, the tumors were injected with AMD3100 alone or in combination with IL-1ra or vehicle (hereafter termed ‘treatment’). Mice were given a second ‘treatment’ at D8 along with a first dose of chemotherapy delivered intra-peritoneally. A second dose of chemotherapy was given at D10 and the mice euthanized at D12.
# In FIG. 7, the effects of AMD3100 and carboplatin on tumor volume are represented. The method by which mice were treated is shown in (A). (B) Female BALB/c (n=5) were injected subreast cancerutaneously with matrigel and 10^6 MDA-MB-231 alone or in combination with 10^6 MSCs. The mean volumes at the first injection (day 8, D8) are normalized to 100% and the change in volumes at D10 and D12 are presented as mean±SD.
# [4] = test system: T47D
# Experimental: (§1) Cultures of breast cancer cells and MSCs, alone or in co-culture, from each experimental setup were assayed for cellular proliferation and viability using the CyQuant Cell Proliferation Assay Kit (Molecular Probes; Eugene, Oreg.) and CellTiter-Blue Cell Viability Assay (Promega), respectively, according to manufacturer's specific instructions.
# (§2) For assessment of viability, CellTiter-Blue reagent was added to cells grown in 96-well plates, and then incubated for 4 hours at 37° C. Following incubation, wells were read using a fluorescence microplate reader at 560 nm excitation/590 nm emission. Percent viability was calculated from a reference using untreated healthy cells, which were considered 100% viable, and cell-free wells containing reagent alone, which were considered 0% viable.
# (§3) Breast cancer cells, cultured alone or with MSCs for 12 days, were treated with AMD3100, or untreated. After 48 hours, all cultures were exposed to carboplatin, with re-added AMD3100 in cultures that had initial AMD3100. After 72 hours, the viable cells were counted (A and B), and presented (C and D) as the mean±SD, n=3. Whole cell extracts from these experiments were analyzed by immunoblot for caspase-3 (E). Membranes were stripped and re-probed with β-actin for normalization. Representative blots are shown, n=3.
# (§4) Breast cancer cells cultured in the presence or absence of MSCs for 12 days were treated for 48 hours with AMD3100, or untreated. Following 48 hours, treated and untreated cells were exposed to carboplatin for 72 hours to induce cell death. […] At the end of this regiment cell proliferation (A and B) and viability (C and D) were assessed. The results are presented as the mean±SD, n=3.
# [5] = test system: MDA-MB-231
# Experimental: as §1, §2, §3, §4
# [6] = test system: caspase-3; settings: breast cancer cells isolated from co-culture, carboplatin added with AMD3100
# Experimental: Whole cell extracts from breast cancer cells and MSCs were prepared in accordance with accepted methods and 20 μg were analyzed by western blots using 4-20% SDS-PAGE (Bio-Rad, Hercules, Calif.). The proteins were transferred onto polyvinylidene difluoride membranes (Perkin Elmer Life Sciences, Boston, Mass.). Membranes were incubated overnight with primary antibodies and then detected the following day by 2 hour incubation with HRP-conjugated IgG. All primary and secondary antibodies were used at final dilutions of 1/1000 and 1/2000, respectively. HRP was developed with chemiluminscence detection reagent (Perkin Elmer Life Sciences). The membranes were stripped with Restore Stripping Buffer (Pierce, Rockford, Ill.) for reprobing with other antibodies.
# [7] = test system: T47D; test: CyQuant proliferation of T47D, alone or in co-culture with MSCs
# [8] = test system: IL-1α; settings: MDA-MB-231 transwell cultures, MSCs obtained from AMD3100-treated co-cultures, 48 hours
# Experimental: (§5) To assess the factor(s) responsible for breast cancer cell proliferation (FIGS. 4A and 4B), media from representative (MDA-MB-231) transwell cultures were analyzed with a cytokine/growth factor microarray.
# (§6) Cytokine production by MSCs in the transwell assay was assessed using the Human Cytokine Antibody Array 5 (RayBiotech; Norcross, Ga.). Briefly, after 48 hours of culture, the transwell was removed and the breast cancer cell growth media collected for cytokine determination. Background levels obtained with media alone were subtracted. The densities of spots were quantitated with UN-SCAN-IT densitometry software (Silk Scientific; Orem, Utah).
# [9] = test system: naïve breast cancer cells; test: Transwell assay: proliferation of naïve breast cancer cells with MSCs in the inner wells; assay type: cell-based, human; settings: inner wells: MSCs from co-cultures with AMD3100, compared to antagonist-treated MSCs alone; 48 hours
# Experimental: Using mechanistic studies, we next asked whether breast cancer cells proliferation by AMD3100 requires contact between MSCs and breast cancer cells. […] To address this question, we utilized a transwell assay in which “naïve” breast cancer cells, which were not previously exposed to MSCs or AMD3100, were seeded in the outer wells. MSCs from co-cultures with AMD3100 or vehicle were added to the inner wells. In parallel, only vehicle was added to the inner wells.
# Breast cancer cells (5×10^4) were added to the outer well of 24-well transwell cultures, 0.4 μM insert (BD Falcon). In parallel, breast cancer cells were separated from co-cultures with MSCs by positive selection with anti-cytokeratin-conjugated; pan anti-mouse IgG Dynabeads (Invitrogen). MSCs from the negative fraction were then added to the inner wells of the transwell chamber in order to determine the effects of MSC-derived soluble factors on breast cancer cell proliferation. For neutralization of soluble IL-1α and IL-1β, anti-IL-1RI was titrated into the 24-well plates.
# MSCs were co-cultured with breast cancer cells for 12 days with, or without AMD3100. The MSCs were selected and then added to the inner wells of transwell cultures. Naïve breast cancer cells were placed in the outer wells. After 48 hours, breast cancer cells were counted and the results presented as mean±SD, n=3 (A and B). […]
# [10] = test system: MDA-MB-231; remark: listed apart in the source
# Experimental: The study of the molecular disruption of CXCL12-CXCR4 with a CXCR4 antagonist, AMD3100 was expanded. We first examined the effects of AMD3100 on the proliferation of MDA-MB-231 and T47D, in co-culture with MSCs (FIGS. 1D and 1E), in the presence of two different concentrations of the antagonist (10 and 100 ng/ml) for the 48-hour culture. Parallel cultures contained vehicle.
# Some studies also looked at AMD3100 in long-term breast cancer cell/MSC co-cultures. In this set of studies we determined the effect of AMD3100 when breast cancer cells were cultured with MSCs for over 48 hours since this will recapitulate in situ when breast cancer cells are expected to contact MSCs for long periods. […] Control cultures contained vehicle (−) and 2-day exposure to AMD3100 (D2).
# as §1
# For determination of proliferation, cells grown in 96-well plates were frozen overnight at −70° C. The next day, thawed cells were incubated in CyQuant GR dye/cell-lysis buffer for 5 minutes at room temperature, and examined using a fluorescence microplate reader at 480 nm excitation/520 nm emission. Proliferation was calculated from a standard curve of known numbers of breast cancer cells and MSCs. To accurately assess the proliferation of breast cancer cells, but not MSC proliferation in co-culture, proliferation of MSCs grown alone were subtracted from the total cellular proliferation recorded.
# [11] = test system: breast cancer cells; settings: 12-day co-culture with MSCs, AMD3100 for the last 48 hours, compared to no treatment
# Experimental: We studied cell cycle phase of 12-day co-cultured breast cancer cells, with or without AMD3100, as described for FIG. 2. Breast cancer cells cultured alone served as control. […] FIG. 3B illustrates a representative histogram of the proportion of cycling (peaks 2 and 3) versus non-cycling (peak 1) MDA-MB-231 co-cultured with MSCs, with (right) or without AMD3100 (left).
# Breast cancer cells and MSC co-cultures were incubated with anti-cytokeratin primary and FITC-anti IgG secondary antibodies to label the breast cancer cell fraction. Cells were then treated with RNase A (1 mg/ml) and fixed with cold 70% ethanol. Cells were stained with 20 μg/ml propidium iodide (PI) solution and transferred to round bottom tubes for DNA analysis by BD FACScan. Double positive cells identified only the desired cellular fraction, consisting of breast cancer cells that incorporated the DNA dye. Cultures incubated with FITC anti-IgG alone were used as isotype controls. All analyses were performed using BD CellQuest software and percent statistics were given.
# Breast cancer cells, alone or 12-day cultures with MSCs were treated with AMD3100 for the last 48 hours or untreated. At the end of the assay, cells were co-labeled with anti-cytokeratin and propidium iodide and then analyzed by flow cytometry. Results are presented as the mean percent cycling cells (S+G2/M phases)±SD, n=3 (B). […]
# [12] = test system: IL-1β; settings: MDA-MB-231 transwell cultures, MSCs obtained from AMD3100-treated co-cultures, 48 hours
# Experimental: as §5, §6
# [13] = test system: hematopoietic stem cells (HSCs); settings: potential side effect in combination with chemotherapy; cited from earlier work
# [14] = T47D + MSCs, AMD3100 48 hours, then carboplatin 72 hours in the absence of AMD3100 (FIG. 6)
# [15] = MDA-MB-231 + MSCs, AMD3100 48 hours, then carboplatin 72 hours in the absence of AMD3100 (FIG. 6)
# Sequence of CXCR7 (P25106 whole entry, species assumed): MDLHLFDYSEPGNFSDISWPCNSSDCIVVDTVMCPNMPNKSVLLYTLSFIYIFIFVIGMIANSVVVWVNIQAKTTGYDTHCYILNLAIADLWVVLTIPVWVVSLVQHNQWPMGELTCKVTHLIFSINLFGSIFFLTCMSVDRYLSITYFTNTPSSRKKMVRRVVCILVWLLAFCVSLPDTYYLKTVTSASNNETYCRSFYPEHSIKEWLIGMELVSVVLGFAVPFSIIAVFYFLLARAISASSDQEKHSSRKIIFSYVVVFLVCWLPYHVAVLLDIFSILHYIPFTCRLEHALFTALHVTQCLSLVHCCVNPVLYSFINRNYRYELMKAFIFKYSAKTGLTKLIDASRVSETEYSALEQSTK
molecule,measurement,setting,value
c1cc(CN2CCCNCCNCCCNCC2)ccc1CN1CCCNCCNCCCNCC1 [AMD3100],effect on primary and metastatic breast cancer,[1],can decrease primary and metastatic breast cancer in mice
same,overall survival for experimental lung metastases,[1],no effect on the overall survival
same,action on CXCR7,[2],allosteric agonist of CXCR7
same,mean tumor volume by D12,"[3]; group C: breast cancer cells + MSCs, tumors injected with AMD3100, carboplatin at days 8 and 10",significant reduction in tumor volume; also recorded: significantly (p<0.05) reversed the chemoprotective effect of MSCs
same,cell viability with AMD3100,[4],no change in cell viability
same,resistance to carboplatin when chemotherapy was added with AMD3100,"[4]; T47D + MSCs 12 days, AMD3100 48 hours then carboplatin with re-added AMD3100 72 hours",resistance was compromised
same,viability after AMD3100 pre-treatment and chemotherapy without the antagonist,[4]; [14],effect on cell proliferation and viability was lost
same,cell viability with AMD3100,[5],no change in cell viability
same,resistance to carboplatin when chemotherapy was added with AMD3100,"[5]; MDA-MB-231 + MSCs 12 days, AMD3100 48 hours then carboplatin with re-added AMD3100 72 hours",resistance was compromised
same,viability after AMD3100 pre-treatment and chemotherapy without the antagonist,[5]; [15],effect on cell proliferation and viability was lost
same,caspase-3 immunoreactivity,[6],increased caspase-3 immunoreactivity
same,proliferation in 12-day (D12) co-culture with MSCs,"[7]; T47D + MSCs 12 days, optimal AMD3100 during the last 48 hours, effect on the MSC-mediated decrease",significantly (p<0.05) reversed
same,AMD3100 concentration of sensitivity (optimal dose for proliferation),"[7]; T47D + MSCs, 48-hour culture",100 ng/mL
same,proliferation of breast cancer cells in co-cultures with MSCs,"[7]; T47D + MSCs, 48-hour culture, AMD3100 10 and 100 ng/ml, compared to breast cancer cells alone (FIG. 1E)",promoted the proliferation
same,cell proliferation after AMD3100 pre-treatment and chemotherapy without the antagonist,[7]; [14],effect on cell proliferation and viability was lost
same,proliferation of breast cancer cells alone,"[7]; T47D cultured alone, 48 hours, AMD3100",decrease in cell proliferation
same,relation of proliferation to AMD3100 concentration,"[7]; T47D, closed circles FIG. 1E, 10 and 100 ng/ml",inversely related to AMD3100 concentration
same,time at which the increase in proliferation began,"[7]; T47D, optimal AMD3100 dose, relative to MDA-MB-231",at a later time point
same,optimum time for AMD3100-mediated proliferation,"[7]; T47D, optimal AMD3100 dose, various times (FIG. 1G)",48 h
same,"IL-1α in transwell media, fold greater",[8],3 fold
same,naïve breast cancer cell proliferation in transwells,[9],significant (p<0.05) increase
same,proliferation in 12-day (D12) co-culture with MSCs,"[10]; MDA-MB-231 + MSCs 12 days, optimal AMD3100 during the last 48 hours, effect on the MSC-mediated decrease",significantly (p<0.05) reversed
same,AMD3100 concentration of sensitivity (optimal dose for proliferation),"[10]; MDA-MB-231 + MSCs, 48-hour culture",10 ng/mL
same,proliferation of breast cancer cells in co-cultures with MSCs,"[10]; MDA-MB-231 + MSCs, 48-hour culture, AMD3100 10 and 100 ng/ml, compared to breast cancer cells alone (FIG. 1D)",promoted the proliferation
same,cell proliferation after AMD3100 pre-treatment and chemotherapy without the antagonist,[10]; [15],effect on cell proliferation and viability was lost
same,time at which the increase in proliferation began,"[10]; MDA-MB-231, optimal AMD3100 dose",1 h
same,optimum time for AMD3100-mediated proliferation,"[10]; MDA-MB-231, optimal AMD3100 dose, various times (FIG. 1F)",48 h
same,proliferation of breast cancer cells alone,"[10]; MDA-MB-231 cultured alone, 48 hours, AMD3100",decrease in cell proliferation
same,cycling cells (S/G2/M phase),[11],significant (p<0.05) increase in cycling cells
same,"IL-1β in transwell media, fold greater",[12],5 fold
same,mobilization of hematopoietic stem cells,[13],can mobilize hematopoietic stem cells
N.N.O=C([O-])C1(C(=O)[O-])CCC1.[Pt+2] [carboplatin],mean tumor volume by D12,"[3]; group A: breast cancer cells injected alone, carboplatin at days 8 and 10",drastic reduction in mean tumor volume
same,mean tumor volume by D12,"[3]; group B: breast cancer cells co-injected with MSCs, carboplatin at days 8 and 10, effect on the reduction seen in group A",significantly (p<0.05) impeded
same,response to carboplatin (viable cells / viability) in co-culture with MSCs,"[4]; T47D + MSCs 12 days, carboplatin 72 hours, no AMD3100, compared to breast cancer cells alone",chemoresistant
same,response to carboplatin (viable cells / viability) in co-culture with MSCs,"[5]; MDA-MB-231 + MSCs 12 days, carboplatin 72 hours, no AMD3100, compared to breast cancer cells alone",chemoresistant
IL-1ra: IL-1 receptor antagonist used to block the activity of IL-1 in the mouse tumor model,mean tumor volume by D12,"[3]; group D: group C plus IL-1ra co-treatment, effect on the AMD3100 response",negated this response

# Source: patent US20110207814A1, “Combination Therapy for Breast Cancer Treatment” (priority 2009, published 2011)
